{"source": "paper PMC10257182", "about": "“Discovery of senolytics using machine learning” (Nature Communications, 2023)", "tested_on": "non-senescent control IMR90 ER:RAS cells", "assay": "Nuclei count (Hoechst, high content imaging) senolytic assay, OIS model, non-senescent control cells", "format": "cell-based, human", "settings": "Homo sapiens", "description": "To test for senolytic activity, we compared the effect of each compound on the total cell number (automated high content image-based analysis of total number of nuclei per well) in non-senescent and senescent IMR90 ER:RAS cultures treated with the top hits from the computational screen (Figs. 2e and 3a–d and Supplementary Fig. 4a–c). The drop in cell number compared to untreated controls is indicated by the nuclei count and reflects cell death[13],[15]. As positive control, we employed ouabain, a cardiac glycoside with well characterised senolytic activity.\nWe performed experimental validation of the compounds with z-score > 8 (Fig. 2e). […] We employed two cellular models of senescence: one of OIS and a second one of TIS. For the OIS case, we utilised IMR90 ER:RAS cells with 4-OHT at 100 nM. […] For the TIS model, we used A549 cells with etoposide at 100 μM. The exposure of the cells to etoposide lasted 48 h, after which period the cells were cultivated for a further three days with normal media.\nIMR90 (CCL-186) human foetal lung fibroblasts and A549 (CCL-185) human lung adenocarcinoma cells were obtained from the American Type Culture Collection (ATCC, Manassas, VA). The cell lines were confirmed to be mycoplasma negative (Lonza MycoAlert, cat #LT07-118). IMR90 ER:RAS is a derivative of IMR90 cells expressing a switchable version of oncogenic H-Ras[84]. IMR90 ER:RAS and A549 cells were maintained in Dulbecco’s Modified Eagle Medium (DMEM, ThermoFisher) supplemented with foetal bovine serum (10%), L-glutamine (2 mM, ThermoFisher), and antibiotic-antimycotic solution (1%, ThermoFisher) and incubated under standard tissue culture conditions (37 °C and 5% CO2). For induction of the senescent phenotype, IMR90-ER:RAS cells were cultured in hydroxytamoxifen (4-OHT) (Sigma) added media at 100 nM final concentration. IMR90 were kept in culture for over 27 passages for replicative senescence. Cells were tested for mycoplasma on a regular basis.\nCells were seeded (50 μL per well) into 384-well plates (IMR90 ER:RAS cells in Nunc Optical Bottom Polybase Microplates [#142761, Thermo Scientific, Rochester, NY] and A549 cells in CELLSTAR Cell Culture Microplates [#781091, Greiner Bio-One, Kremsmünster, Austria]). Cells were incubated under standard tissue culture conditions for 24 h before the addition of compounds. Passage 14 IMR90 ER:RAS cells were seeded at 1300 cells per well in the control condition, and at 1600 cells per well in the senescent case. Passage 34 A549 cells were seeded at 7000 cells per well in the control condition, and at 10,000 cells per well in the senescent case.\nDose response plates were prepared with a DMSO control and a 10-point […] concentration range, and added to the compounds using a D300e digital dispenser (Tecan Trading AG, Switzerland) at a final concentration of between 10 μM and 10 nM. Every screened condition was carried out in triplicate. After 72 h of incubation with exposure to the compounds, cells were fixed by the addition of an equal volume of formaldehyde (8%, 50 μL; #BP531-500, Fisher Bioreagents, Fisher Scientific, Loughborough, Leicestershire) to the existing media, incubated at room temperature (30 min), and washed three times in phosphate-buffered saline (PBS). Cells were then permeabilised in Triton-X100 (0.1%, 50 μL) and incubated at room temperature (30 min) followed by three more washes with PBS.\nCells were stained with Hoechst 33342 for nuclei count (excitation/emission wavelength at 387/447 […], DAPI channel, original concentration at 10 mg/ml, final concentration at 2 μg/ml; H1399, Molecular Probes, Eugene, OR). The staining solution was prepared in bovine serum albumin solution (10%). The staining solution was added to each well (30 μL) and incubated in the dark at room temperature (30 min), followed by three washes with PBS and no final aspiration. Plates were foil sealed.", "note": "Read-outs that look alike come from different tables or passages of the source.", "data": [{"compound": "CO[C@H]1C[C@@H]2CC[C@@H](C)[C@@](O)(O2)C(=O)C(=O)N2CCCC[C@H]2C(=O)O[C@H]([C@H](C)C[C@@H]2CC[C@@H](OP(C)(C)=O)[C@H](OC)C2)CC(=O)[C@H](C)/C=C(\\C)[C@@H](O)[C@@H](OC)C(=O)[C@H](C)C[C@H](C)/C=C/C=C/C=C/1C", "note": "[Ridaforolimus, ridaforolimus, reference compound]", "values": [{"measurement": "viability at 10 µM", "setting": "IMR-90, 72 h, Control, log (dose) [M] -5, 72 h, mean n=3 (Fig 3C), read-out: Mean % Cell Survival", "result": 75.2, "unit": "%"}, {"measurement": "viability at 4.677 µM", "setting": "IMR-90, 72 h, Control, log (dose) [M] -5.33, 72 h, mean n=3 (Fig 3C), read-out: Mean % Cell Survival", "result": 82.6, "unit": "%"}, {"measurement": "viability at 2.188 µM", "setting": "IMR-90, 72 h, Control, log (dose) [M] -5.66, 72 h, mean n=3 (Fig 3C), read-out: Mean % Cell Survival", "result": 82.3, "unit": "%"}, {"measurement": "viability at 1 µM", "setting": "IMR-90, 72 h, Control, log (dose) [M] -6, 72 h, mean n=3 (Fig 3C), read-out: Mean % Cell Survival", "result": 77.9, "unit": "%"}, {"measurement": "viability at 0.4677 µM", "setting": "IMR-90, 72 h, Control, log (dose) [M] -6.33, 72 h, mean n=3 (Fig 3C), read-out: Mean % Cell Survival", "result": 87.6, "unit": "%"}, {"measurement": "viability at 0.2188 µM", "setting": "IMR-90, 72 h, Control, log (dose) [M] -6.66, 72 h, mean n=3 (Fig 3C), read-out: Mean % Cell Survival", "result": 91.5, "unit": "%"}, {"measurement": "viability at 0.1 µM", "setting": "IMR-90, 72 h, Control, log (dose) [M] -7, 72 h, mean n=3 (Fig 3C), read-out: Mean % Cell Survival", "result": 77.4, "unit": "%"}, {"measurement": "viability at 0.04677 µM", "setting": "IMR-90, 72 h, Control, log (dose) [M] -7.33, 72 h, mean n=3 (Fig 3C), read-out: Mean % Cell Survival", "result": 106, "unit": "%"}, {"measurement": "viability at 0.02188 µM", "setting": "IMR-90, 72 h, Control, log (dose) [M] -7.66, 72 h, mean n=3 (Fig 3C), read-out: Mean % Cell Survival", "result": 88.9, "unit": "%"}, {"measurement": "viability at 0.01 µM", "setting": "IMR-90, 72 h, Control, log (dose) [M] -8, 72 h, mean n=3 (Fig 3C), read-out: Mean % Cell Survival", "result": 92.5, "unit": "%"}, {"measurement": "viability at 10 µM", "setting": "IMR-90, Control, log (dose) [M] -5, read-out: % Cell Survival", "result": 119, "unit": "%"}, {"measurement": "viability at 2.19 µM", "setting": "IMR-90, Control, log (dose) [M] -5.66, read-out: % Cell Survival", "result": 107, "unit": "%"}, {"measurement": "viability at 0.468 µM", "setting": "IMR-90, Control, log (dose) [M] -6.33, read-out: % Cell Survival", "result": 105, "unit": "%"}, {"measurement": "viability at 0.219 µM", "setting": "IMR-90, Control, log (dose) [M] -6.66, read-out: % Cell Survival", "result": 109, "unit": "%"}, {"measurement": "viability at 0.1 µM", "setting": "IMR-90, Control, log (dose) [M] -7, read-out: % Cell Survival", "result": 97, "unit": "%"}, {"measurement": "viability at 0.04677 µM", "setting": "IMR-90, Control, log (dose) [M] -7.33, read-out: % Cell Survival", "result": 115, "unit": "%"}, {"measurement": "viability at 0.0219 µM", "setting": "IMR-90, Control, log (dose) [M] -7.66, read-out: % Cell Survival", "result": 113, "unit": "%"}, {"measurement": "viability at 0.01 µM", "setting": "IMR-90, Control, log (dose) [M] -8, read-out: % Cell Survival", "result": 113, "unit": "%"}]}]}
